The values that follow come from patent publication US20190062305A1, “PYRIDYL OR PYRAZINYL COMPOUNDS CARRYING A METHYL-BOUND ALPHA-AMINO ACID AMIDE GROUP” (ABBVIE DEUTSCHLAND GMBH & CO. KG, priority 2015, published 2019).

The target in one data set is T1, 5-HT2C receptor (Homo sapiens, UniProt P28335).
T1 construct: host or cells: U2OS
The experiment in a line: Human 5-HT2C functional assay (beta-arrestin2 recruitment, U2OS_HTR2C_β-Arrestin cells). In kind it is cell-based. The conditions noted are these: for EC50: beta-arrestin2 recruitment, U2OS_HTR2C_β-Arrestin cells, 1.5 h incubation, read-out: EC50 5-HT2C (potency in functional assay); for Emax: relative efficacy vs response to 10 μM 5-HT or maximal 5-HT effect (100%). In outline: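 EC50 and relative efficacy came from 4-parameter variable-slope fits, normalised to 10 µM 5-HT or maximal 5-HT response (100%). Luminescent β-galactosidase enzyme-complementation signal was read after 1.5 h compound exposure in U2OS_HTR2C_β-Arrestin cells held in 1% serum medium from the prior day.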

Data set [1] is described as follows: Metabolic stability in human liver microsomes, unbound intrinsic clearance (Cl int/fu mic). In kind it is in vitro ADME. The conditions noted are these: human, liver microsomes, pH 7.4, human liver microsomes 0.25 mg/mL, 0.5 μM compound, NADPH, read-out: Cl int, mic unb. (h) [l/h/kg] (unbound intrinsic clearance, human). The method in brief:
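Unbound intrinsic clearance is CLint divided by fu mic, with the unbound fraction measured by 4 h HTDialysis at 37 °C of 0.25 mg/ml microsomes spiked with 0.5 µM compound. For CLint, 0.5 µM compound was incubated with 0.25 mg/mL human microsomes and 1.0 mM NADPH (pH 7.4, 37 °C). Substrate loss over 30 min was measured by LC-MS/MS and t1/2 assumed first-order kinetics.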

Molecules are shown by their SMILES. Structures can show the parent of a compound that is named as a salt. Where only a bound is given, the exact number is not on record here.

T1 sequence (P28335 33-458): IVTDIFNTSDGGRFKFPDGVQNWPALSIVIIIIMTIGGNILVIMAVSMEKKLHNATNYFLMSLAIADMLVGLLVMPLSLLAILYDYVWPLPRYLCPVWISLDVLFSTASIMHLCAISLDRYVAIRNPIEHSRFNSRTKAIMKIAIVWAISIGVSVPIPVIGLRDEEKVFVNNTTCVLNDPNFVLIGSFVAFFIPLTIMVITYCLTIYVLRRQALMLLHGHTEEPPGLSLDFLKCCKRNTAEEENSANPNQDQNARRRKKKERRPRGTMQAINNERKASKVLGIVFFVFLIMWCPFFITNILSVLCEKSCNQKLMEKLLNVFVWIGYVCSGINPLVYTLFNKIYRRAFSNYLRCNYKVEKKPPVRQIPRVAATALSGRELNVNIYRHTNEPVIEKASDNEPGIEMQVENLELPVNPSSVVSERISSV
T1 sequence (P32121 whole entry partner): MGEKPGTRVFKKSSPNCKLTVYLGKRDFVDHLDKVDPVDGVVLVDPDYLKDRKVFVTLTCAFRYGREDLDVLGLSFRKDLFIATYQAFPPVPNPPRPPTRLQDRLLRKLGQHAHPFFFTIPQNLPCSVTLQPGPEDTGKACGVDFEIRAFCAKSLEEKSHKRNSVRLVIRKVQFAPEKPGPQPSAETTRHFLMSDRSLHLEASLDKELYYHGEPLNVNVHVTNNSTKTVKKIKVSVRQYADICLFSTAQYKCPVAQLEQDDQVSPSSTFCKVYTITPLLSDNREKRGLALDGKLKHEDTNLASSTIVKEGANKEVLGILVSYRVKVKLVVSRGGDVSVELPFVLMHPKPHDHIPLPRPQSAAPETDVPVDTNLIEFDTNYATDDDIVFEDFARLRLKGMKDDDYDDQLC

In the case of `COc1nc(C(F)(F)Cc2ccccc2)c(F)cc1CN(C)C(=O)[C@@H]1CCCN1` [Example 191, (2S)—N-[[6-(1,1-Difluoro-2-phenyl-ethyl)-5-fluoro-2-methoxy-3-pyridyl]methyl]-N-methyl-pyrrolidine-2-carboxamide Hydrochloride], on 5-HT2C receptor, the 50% effective concentration (EC50) was 200 to 1000 nM and the Emax is 30 to 50%. Further, in data set [1], the CLint scaled at 0.5 μM is 5 to 50 L/h/kg.
Turning to `COCCCCc1nc(OC)c(CNC(=O)[C@@H]2CCCN2)cc1F` [Example 193, (2S)—N-[[5-Fluoro-2-methoxy-6-(4-methoxybutyl)-3-pyridyl]methyl]pyrrolidine-2-carboxamide], at 5-HT2C receptor, the EC50 fell in the range of 200 to 1000 nM and the Emax was greater than 70%. Further, the CLint scaled at 0.5 μM in data set [1] was less than 5 L/h/kg.
As to `COc1nc(N2CC(Cc3ccccc3)C2)c(F)cc1CNC(=O)[C@@H]1CCCN1` [Example 194, (2S)—N-[[6-(3-Benzylazetidin-1-yl)-5-fluoro-2-methoxy-3-pyridyl]methyl]-pyrrolidine-2-carboxamide], at 5-HT2C receptor, the EC50 was 20 to 200 nM and the Emax is greater than 70%. In data set [1], the CLint scaled at 0.5 μM lay within 50 to 500 L/h/kg.
As to `COc1nc(N2CCC(Oc3ccccc3)CC2)c(F)cc1CNC(=O)[C@@H]1CCCN1` [Example 195, (2S)—N-[[5-Fluoro-2-methoxy-6-(4-phenoxy-1-piperidyl)-3-pyridyl]methyl]-pyrrolidine-2-carboxamide; 2,2,2-trifluoroacetic Acid], at 5-HT2C receptor, the EC50 was 20 to 200 nM and the maximal response (Emax) is greater than 70%. In data set [1], the CLint scaled at 0.5 μM is 50 to 500 L/h/kg.
